Consider one compound from ChEMBL document CHEMBL3259609, “Optimization of pancreatic lipase inhibition by Cudrania tricuspidata fruits using response surface methodology” (Bioorg Med Chem Lett, 2014).

Structures are written as SMILES.

Assay [1] has as its target T1, Pancreatic triacylglycerol lipase (Sus scrofa, UniProt P00591).
T1 sequence (P00591 whole entry): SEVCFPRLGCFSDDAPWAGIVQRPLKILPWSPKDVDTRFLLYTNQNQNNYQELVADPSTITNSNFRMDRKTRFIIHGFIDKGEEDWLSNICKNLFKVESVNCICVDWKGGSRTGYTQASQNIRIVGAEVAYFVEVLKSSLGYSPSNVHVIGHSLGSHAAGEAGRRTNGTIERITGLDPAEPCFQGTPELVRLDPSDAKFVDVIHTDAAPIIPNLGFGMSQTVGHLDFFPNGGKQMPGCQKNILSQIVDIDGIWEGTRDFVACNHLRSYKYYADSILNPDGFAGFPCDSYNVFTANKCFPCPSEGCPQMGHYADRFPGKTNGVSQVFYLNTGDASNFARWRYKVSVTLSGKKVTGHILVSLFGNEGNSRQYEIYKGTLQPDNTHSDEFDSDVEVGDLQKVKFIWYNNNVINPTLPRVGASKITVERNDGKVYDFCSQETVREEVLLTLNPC
Kind of assay: Inhibition of porcine pancreatic lipase assessed as hydrolysis of p-NPB to p-nitrophenol by microplate reader.

The target of assay [2] is T2, Pancreatic triacylglycerol lipase (Sus scrofa) (UniProt P00591).
T2 sequence (whole entry): T1 sequence (P00591 whole entry)
The conditions noted are these: 10 uM.
Description: Inhibition of porcine pancreatic lipase assessed as hydrolysis of p-NPB to p-nitrophenol at 10 uM by microplate reader relative to control

Turning to `CC(C)=CCc1c(O)c(CC=C(C)C)c2occ(-c3ccc(O)cc3)c(=O)c2c1O`, the IC50 (commonly the concentration that gives 50% inhibition) in assay [1] was found to be 65 µM. For the same compound, the inhibition – broadly, how much of the control response was suppressed – in assay [2] is 72.2%.
